Reference: US20170334959A1 (priority 2015, published 2017)
Entries after “also recorded” stand apart in the source; their conditions may differ. No end group written: not given here.

What was measured:
[1] = biological target: human Nav1.6 (Homo sapiens, UniProt Q9UQD0); format: cell-based
[2] = biological target: human Nav1.7 (Homo sapiens, UniProt Q15858, W1161R); format: cell-based; settings: read-out: Nav1.7 IC50
[3] = system: CFA-induced thermal hyperalgesia; design: species or system mice; settings: mouse, in vivo
[4] = system: CFA-induced tactile allodynia; design: species or system mice; settings: mouse, in vivo
[5] = system: thermal withdrawal latency; design: species or system mice; settings: mouse, in vivo
[6] = system: carrageenan-induced thermal hyperalgesia; design: species or system mice; settings: mouse, in vivo
[7] = system: acute thermal pain (tail withdrawal latency); settings: in vivo
[8] = system: acute thermal pain (hot plate latency); settings: in vivo
[9] = system: formalin-induced flinching (injury-induced pain); settings: rat, in vivo
[10] = system: acute and inflammatory pain; settings: in vivo; cited from earlier work
[11] = system: isolated nerves; settings: cited from earlier work

human Nav1.6, sequence (Q9UQD0 whole entry): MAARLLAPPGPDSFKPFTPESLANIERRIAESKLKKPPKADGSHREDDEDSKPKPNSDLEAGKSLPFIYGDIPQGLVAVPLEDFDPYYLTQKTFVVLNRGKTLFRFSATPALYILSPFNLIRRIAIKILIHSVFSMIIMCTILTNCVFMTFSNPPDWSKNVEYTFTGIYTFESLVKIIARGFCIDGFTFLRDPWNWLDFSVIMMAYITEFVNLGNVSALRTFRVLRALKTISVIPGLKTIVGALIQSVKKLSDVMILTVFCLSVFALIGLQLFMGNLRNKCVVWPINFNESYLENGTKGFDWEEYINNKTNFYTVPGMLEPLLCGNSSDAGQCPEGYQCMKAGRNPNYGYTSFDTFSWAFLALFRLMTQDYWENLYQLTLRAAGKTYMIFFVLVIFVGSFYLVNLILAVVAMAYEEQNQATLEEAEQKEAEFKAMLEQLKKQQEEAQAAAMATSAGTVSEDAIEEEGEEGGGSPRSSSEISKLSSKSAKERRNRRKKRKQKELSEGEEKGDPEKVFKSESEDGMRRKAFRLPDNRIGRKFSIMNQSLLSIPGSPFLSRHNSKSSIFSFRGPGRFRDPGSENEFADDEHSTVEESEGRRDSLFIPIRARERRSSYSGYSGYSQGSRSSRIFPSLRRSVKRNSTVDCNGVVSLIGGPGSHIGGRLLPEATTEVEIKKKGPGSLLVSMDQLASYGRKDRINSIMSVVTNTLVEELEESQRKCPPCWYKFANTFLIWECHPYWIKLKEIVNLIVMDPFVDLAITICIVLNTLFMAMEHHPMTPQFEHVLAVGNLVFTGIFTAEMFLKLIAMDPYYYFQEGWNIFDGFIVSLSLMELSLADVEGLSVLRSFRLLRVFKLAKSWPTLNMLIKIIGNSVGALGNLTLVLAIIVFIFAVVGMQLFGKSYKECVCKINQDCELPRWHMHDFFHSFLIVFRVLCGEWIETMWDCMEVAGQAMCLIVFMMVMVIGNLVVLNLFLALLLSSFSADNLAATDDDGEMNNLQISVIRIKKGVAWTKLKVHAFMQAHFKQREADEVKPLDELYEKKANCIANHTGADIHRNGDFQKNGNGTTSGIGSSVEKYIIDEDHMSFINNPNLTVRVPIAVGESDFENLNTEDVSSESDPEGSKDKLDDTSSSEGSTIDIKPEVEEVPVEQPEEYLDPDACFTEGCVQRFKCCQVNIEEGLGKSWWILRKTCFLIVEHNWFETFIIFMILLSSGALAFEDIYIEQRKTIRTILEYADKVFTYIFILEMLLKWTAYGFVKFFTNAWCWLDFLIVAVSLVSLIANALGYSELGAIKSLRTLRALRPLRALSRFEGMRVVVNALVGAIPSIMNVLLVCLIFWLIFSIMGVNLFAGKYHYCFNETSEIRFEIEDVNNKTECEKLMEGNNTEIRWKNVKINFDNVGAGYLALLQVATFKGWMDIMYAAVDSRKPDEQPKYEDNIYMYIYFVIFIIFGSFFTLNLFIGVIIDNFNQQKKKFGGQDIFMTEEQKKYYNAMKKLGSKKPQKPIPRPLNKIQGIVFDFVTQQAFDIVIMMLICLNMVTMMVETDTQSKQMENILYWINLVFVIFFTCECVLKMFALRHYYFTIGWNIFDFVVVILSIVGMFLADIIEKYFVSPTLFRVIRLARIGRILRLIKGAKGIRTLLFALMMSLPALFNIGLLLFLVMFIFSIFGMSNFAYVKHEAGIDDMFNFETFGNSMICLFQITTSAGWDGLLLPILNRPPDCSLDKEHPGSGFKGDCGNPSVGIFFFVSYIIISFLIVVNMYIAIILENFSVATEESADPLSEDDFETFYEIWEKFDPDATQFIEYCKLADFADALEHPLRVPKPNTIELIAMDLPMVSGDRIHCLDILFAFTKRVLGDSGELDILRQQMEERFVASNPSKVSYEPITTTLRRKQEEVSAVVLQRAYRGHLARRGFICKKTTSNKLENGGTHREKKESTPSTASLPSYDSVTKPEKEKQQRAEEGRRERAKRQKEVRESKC

| Substance | selectivity for Nav1.7 compared to recombinant Protoxin-II [1] | IC50 [2] [nM] | also measured |
| --- | --- | --- | --- |
| Ac-QCQKWMQTCDAERKCCEGFSCTLWCKKKLW-NH2 [(-GP) N-Ac-NV1D2974-NH2] | improved selectivity | – | – |
| Ac-QCQKWMQTCDRERKCCEGFVCTLWCRKKLW-NH2 [(-GP) N-Ac-NV1D3034-NH2] | improved selectivity | – | – |
| GPACQKWMQTCDANRKCCEGFSCRLWCKKKLW-OH (cysteine pairing not given here) [NV1D3587] | improved selectivity | – | – |
| GPACQKWMQTCDRNRKCCEGFVCTLWCRKKLW-OH (cysteine pairing not given here) [NV1D3541] | improved selectivity | – | – |
| GPCCNCSSKWCRDHSRCCGRGSAPAPAPAPAPAPAPAPAPAPGSQCQKWMQTCDAERKCCEGFVCRLWCKKKLW [NV1D3260] | – | 57.6 | – |
| GPCCNCSSKWCRDHSRCCGRGSAPAPAPAPAPAPAPAPAPAPGSQCQKWMQTCDRERKCCEGFVCTLWCRKKLW [NV1D3793] | – | 64.6 | – |
| GPCCNCSSKWCRDHSRCCGRGSAPAPAPAPAPGSQCQKWMQTCDAERKCCEGFVCRLWCKKKLW [NV1D3256] | – | 55.7 | – |
| GPCCNCSSKWCRDHSRCCGRGSGGGGSAPAPAPAPAPAPAPAPAPAPGGGGSGSQCQKWMQTCDRERKCCEGFVCTLWCRKKLW [NV1D3830] | – | 88.6 | – |
| GPCCNCSSKWCRDHSRCCGSAPAPAPAPAPAPAPAPAPAPGSQCQKWMQTCDAERKCCEGFVCRLWCKKKLW [NV1D3262] | – | 89.2 | – |
| GPCCNCSSKWCRDHSRCCGSAPAPAPAPAPAPAPAPAPAPGSQCQKWMQTCDRERKCCEGFVCTLWCRKKLW [NV1D3795] | – | 100 | – |
| GPCCNCSSKWCRDHSRCCGSAPAPAPAPAPGSQCQKWMQTCDRERKCCEGFVCTLWCRKKLW [NV1D3796] | – | 110 | – |
| GPCRTIGPSVCAPAPAPAPAPAPAPAPAPAPQCQKWMQTCDRERKCCEGFVCTLWCRKKLW [NV1D3832] | – | 88.4 | – |
| GPGWCGDPGATCGKLRLYCCSGFCDAYTKTCKDKSSAGGGGSAPAPAPAPAPAPAPAPAPAPAPAPAPAPAPGGGGSQCQKWMQTCDRERKCCEGFVCTLWCRKKLW [NV1D3824] | – | 110 | – |
| GPGWCGDPGATCGKLRLYCCSGFCDSYTKTCKDKSSAGGGGSAPAPAPAPAPAPAPAPAPAPAPAPAPAPAPGGGGSQCQKWMQTCDRERKCCEGFVCTLWCRKKLW [NV1D3822] | – | 74.2 | – |
| GPQCQDWMQTCDRERDCCEGFVCTLWCRKKLW-OH (cysteine pairing not given here) [NV1D3379] | – | 31.6 | – |
| GPQCQKWMQSCDRERKCCEGFVCTLWCRKKLW-OH (cysteine pairing not given here) [NV1D3359] | improved selectivity | – | – |
| GPQCQKWMQTCDAERKCCEGFSCTLWCKKKLW-NH2 [NV1D2974-NH2] | improved selectivity | – | – |
| GPQCQKWMQTCDAERKCCEGFSCTLWCKKKLW-OH (cysteine pairing not given here) [NV1D2974] | improved selectivity | – | – |
| GPQCQKWMQTCDAERKCCEGFVCRLWCKKKLW-NH2 [NV1D2775-NH2] | improved selectivity | – | – |
| GPQCQKWMQTCDAERKCCEGFVCRLWCKKKLW-OH (cysteine pairing not given here) [NV1D2775] | improved selectivity | – | efficacy in the CFA model / reversal of CFA-induced thermal hyperalgesia [3]: strong efficacy; thermal latencies in the CFA model [3]: close to the cut-off; time at which anti-hyperalgesic effect was first seen post-pump implantation [3]: ≤ 4 h; time by which thermal latency returned to the control level post pump implantation [3]: ≤ 48 h; time of maximum effect, thermal test [3]: 8 h; reversal of CFA-induced tactile allodynia [4]: reversed; time by which tactile threshold returned to the control level post pump implantation [4]: ≤ 48 h; time of maximum effect, tactile test [4]: 8 h; efficacy in the hot plate test [5]: strong, dose-dependent efficacy; also recorded: significant analgesia; hotplate latencies at 50 and 55° C. [5]: near cut-off; hotplate thermal latency compared to the PBS control [5]: modest yet significant increase; analgesia in the carrageenan study (thermal withdrawal latency) [6]: significant analgesia; protection from carrageenan-induced thermal hyperalgesia [6]: fully protected; efficacy in the tail flick test [7]: significant efficacy; efficacy in the hot plate test [8]: significant efficacy; efficacy in the formalin test (flinches) [9]: significant efficacy |
| GPQCQKWMQTCDAERKCCEGFVCRLWCKKKLWGSAPAPAPAPAPAPAPAPAPAPGSCCNCSSKWCRDHSRCCGR [NV1D3259] | – | 54.9 | – |
| GPQCQKWMQTCDARRKCCEGFVCRLWCKKKLW-OH (cysteine pairing not given here) [NV1D3006] | improved selectivity | – | – |
| GPQCQKWMQTCDRERKCCEGFVCTLWCRKKLW-NH2 [NV1D3034-NH2] | improved selectivity | – | – |

| Substance | selectivity for Nav1.7 compared to recombinant Protoxin-II [1] | IC50 [2] [nM] | also measured |
| --- | --- | --- | --- |
| GPQCQKWMQTCDRERKCCEGFVCTLWCRKKLW-NH-butyl [NV1D3034-NH-butyl] | improved selectivity | – | – |
| GPQCQKWMQTCDRERKCCEGFVCTLWCRKKLW-NH-methyl [NV1D3034-NH-methyl] | improved selectivity | – | efficacy in the CFA model / reversal of CFA-induced thermal hyperalgesia [3]: readily reversed; Thermal MPE % ([3]; sc): 49 ± 17% |
| GPQCQKWMQTCDRERKCCEGFVCTLWCRKKLW-OH (cysteine pairing not given here) [NV1D3034] | – | – | reversal of CFA-induced thermal hyperalgesia ([3]; sc): completely reversed; efficacy in the tail flick test [7]: significant efficacy; efficacy in the hot plate test [8]: significant efficacy; efficacy in the formalin test (flinches) [9]: significant efficacy |
| GPQCQKWMQTCDRERKCCEGFVCTLWCRKKLWGGGGSAPAPAPAPAPAPAPAPAPAPAPAPAPAPAPGGGGSGWCGDPGATCGKLRLYCCSGFCDAYTKTCKDKSSA [NV1D3825] | – | 194 | – |
| GPQCQKWMQTCDRERKCCEGFVCTLWCRKKLWGSAPAPAPAPAPAPAPAPAPAPGSCCNCSSKWCRDHSRCC [NV1D3797] | – | 91.1 | – |
| GPQCQKWMQTCDRERKCCEGFVCTLWCRKKLWGSAPAPAPAPAPAPAPAPAPAPGSCCNCSSKWCRDHSRCCGR [NV1D3798] | – | 94.5 | – |
| GPQCQKWMQTCDRERKCCEGFVCTLWCRKKLWGSAPAPAPAPAPGSCCNCSSKWCRDHSRCC [NV1D3799] | – | 50.6 | – |
| GPQCQKWMQTCDRERKCCEGFVCTLWCRKKLWGSAPAPAPAPAPGSCCNCSSKWCRDHSRCCGR [NV1D3800] | – | 60.9 | – |
| GPQCQKWMQTCDRERKCCEGFVCTLWCRKKLWGSGGGGSAPAPAPAPAPAPAPAPAPAPGGGGSGSCCNCSSKWCRDHSRCC [NV1D3829] | – | 122 | – |
| GPQCQKWMQTCDRERKCCEGFVCTLWCRKKLWGSGGGGSAPAPAPAPAPAPAPAPAPAPGGGGSGSCCNCSSKWCRDHSRCCGR [NV1D3828] | – | 87.5 | – |
| GPQCQKWMQTCDRERKCCQGFVCTLWCRKKLW-OH (cysteine pairing not given here) [NV1D3388] | improved selectivity | – | – |
| GPQCQKWMQTCDRNRKCCEGFVCTLWCRKKLW-OH (cysteine pairing not given here) [NV1D3044] | improved selectivity | – | – |
| GPQCQKWMQTCDRTRKCCEGFVCTLWCRKKLW-NH2 [NV1D3368-NH2] | improved selectivity | – | efficacy in the CFA model / reversal of CFA-induced thermal hyperalgesia [3]: readily reversed |
| GPQCQKWMQTCDRTRKCCEGFVCTLWCRKKLW-OH (cysteine pairing not given here) [NV1D3368] | improved selectivity | – | reversal of CFA-induced thermal hyperalgesia ([3]; sc): fully reversed |
| GPRCQKWMQTCDAERKCCEGFVCRLWCKKKLW-OH (cysteine pairing not given here) [NV1D2772] | improved selectivity | – | – |
| GPSCQKWMQTCDAERKCCEGFVCRLWCKKKLW-OH (cysteine pairing not given here) [NV1D2773] | improved selectivity | – | – |
| GPSHSNTQTLAKAPEHTGAPAPAPAPAPAPAPAPAPAPQCQKWMQTCDRERKCCEGFVCTLWCRKKLW [NV1D3774] | – | 88.6 | – |
| GPYCQKWMQTCDANRKCCEGFSCRLWCKKKLW-NH2 [NV1D3586-NH2] | improved selectivity | – | – |
| GPYCQKWMQTCDANRKCCEGFSCRLWCKKKLW-OH (cysteine pairing not given here) [NV1D3586] | improved selectivity | – | – |
| GPYCQKWMQTCDSERKCCEGMVCRLWCKKKLL-OH (cysteine pairing not given here) [compound 63955918] | – | – | efficacy in the tail flick test [7]: potent and prolonged analgesia; efficacy in the hot plate test [8]: potent and prolonged analgesia; efficacy in the formalin test (flinches) [9]: less flinches |
| GPYCQKWMWTCDSERKCCEGMVCRLWCKKKLW-COOH [NV1D12, reference compound] | – | – | selectivity, ratio IC50(Nav1.6)/IC50(Nav1.7) in QPatch [1]: about 28 fold |
| YCQKWMWTCDSERKCCEGMVCRLWCKKKLW-COOH [wild-type Protoxin-II] | – | – | efficacy in rodent models of acute and inflammatory pain [10]: non-efficacious; inhibition of action potential firing in isolated nerves [11]: inability |
